In patent US6387930B1, “Piperidine derivatives useful as CCR5 antagonists” (Schering Corporation, priority 1999, dated 2002):

Target: T1, human CCR5 chemokine receptor (Homo sapiens, UniProt P51681)
T1 construct: expressed in transfected cells; host or cells: NIH 3T3 cells (mouse fibroblasts), membrane preparation
Test: CCR5 membrane binding assay (inhibition of RANTES binding)
Settings: membranes from NIH 3T3 cells expressing human CCR5; 125I-RANTES
Description: CCR5 Membrane Binding Assay:
A high throughput screen utilizing a CCR5 membrane binding assay identifies inhibitors of RANTES binding. This assay utilizes membranes prepared from NIH 3T3 cells expressing the human CCR5 chemokine receptor which have the ability to bind to RANTES, a natural ligand for the receptor. Using a 96-well plate format, membrane preparations are incubated with ^125I-RANTES in the presence or absence of compound for one hour. Compounds are serially diluted over a wide range of 0.001 ug/ml to 1 ug/ml and tested in triplicates. Reaction cocktails are harvested through glass fiber filters, and washed thoroughly. Total counts for replicates are averaged and data reported as the concentration required to inhibit 50 percent of total ^125I-RANTES binding.

T1 sequence (P51681 whole entry): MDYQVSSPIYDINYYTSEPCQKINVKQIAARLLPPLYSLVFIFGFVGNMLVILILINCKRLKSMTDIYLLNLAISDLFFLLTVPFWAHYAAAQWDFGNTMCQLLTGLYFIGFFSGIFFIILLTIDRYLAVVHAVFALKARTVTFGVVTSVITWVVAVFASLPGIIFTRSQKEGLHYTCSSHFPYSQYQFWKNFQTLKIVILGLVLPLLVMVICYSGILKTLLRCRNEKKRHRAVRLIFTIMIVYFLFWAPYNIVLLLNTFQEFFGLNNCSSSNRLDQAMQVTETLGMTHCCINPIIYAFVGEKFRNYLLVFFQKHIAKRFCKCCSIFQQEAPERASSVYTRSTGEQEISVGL

With Cc1ccnc(C)c1C(=O)N1CCC(C)(N2CCC(C(Oc3ccccn3)c3ccc(C(F)(F)F)cc3)CC2)CC1 (stereo not shown) [Example 2G] the Ki was 1.8 nM.
In the case of Cc1cccc(C)c1C(=O)N1CCC(C)(N2CCC(C(Oc3nccs3)c3ccc(Br)cc3)CC2)CC1 (stereo not shown) [Example 1J], the Ki is reported as 1 nM.
CCO/N=C(\c1ccc(Br)cc1)C1CCN(C2(C)CCN(C(=O)c3c(C)cc(-c4ccncc4)cc3C)CC2)CC1 [Example 5AB] gave a Ki of 0.1 nM.
With Cc1ccnc(C)c1C(=O)N1CCC(C)(N2CCC(C(Oc3cnccn3)c3ccc(S(C)(=O)=O)cc3)CC2)CC1 (stereo not shown) [Example 2S] the Ki was 17.9 nM.
Work on CCO/N=C(\c1ccc(C(F)(F)F)cc1)C1CCN(C2(C)CCN(C(=O)c3c(Cl)cncc3Cl)CC2)CC1 [Example 6V] yielded a Ki of 0.8 nM.
CO/N=C(\c1ccc(Br)cc1)C1CCN(C2(C)CCN(C(=O)c3c(C)ncnc3C)CC2)CC1 [Example 5L] was tested, and the Ki was 7.9 nM.
Work on CC1(N2CCC(Cc3ccc(Br)cc3)CC2)CCN(C(=O)c2cccc3ccccc23)CC1 [Example 9D] yielded a Ki of 588 nM.
For CCO/N=C(\c1ccc(Br)cc1)C1CCN(C2(C)CCN(C(=O)c3c(C)ncnc3C)CC2)CC1 [Example 5N], the Ki was 1.7 nM.
Work on Cc1ccnc(C)c1C(=O)N1CCC(C)(N2CCC(C(Oc3ccccn3)c3ccc(Br)cc3)CC2)CC1 (single isomer, unassigned) [Example 4B] yielded a Ki of 0.5 nM.
With CC1(N2CCC(C(Oc3ccccn3)c3ccc(C(F)(F)F)cc3)CC2)CCN(C(=O)c2c(Cl)cncc2Cl)CC1 (stereo not shown) [Example 2JJ] the Ki was 0.58 nM.
